Measurements from patent US20240228434A1, “PRODRUGS OF KV7 CHANNEL OPENERS” (Xyzagen, Inc., priority 2021, published 2024).

What was measured:
[1] = Pharmacokinetics of ezogabine prodrugs in mouse (SC, PO); conditions: male mice, PO 20 mg/kg Cmpd 1 dosed
Experimental: (§1) Blood was diluted by 10% with these stabilizers.
(§2) Extraction of the molecules was conducted by taking a 50 uL aliquot of plasma and adding 200 uL of acetonitrile containing 200 ng/mL tolbutamide as the internal standard. Samples were precipitated in a 96 well plate, centrifuges and an aliquot transferred to a new plate, dried down under heat and nitrogen and then reconstituted in the initial mobile phase conditions of the LC-MS/MS method. […] A standard curve was prepared from 5000 ng/mL to 1 ng/mL for each analyte. Concentration data from the bioanalytical run was analyzed by Phoenix Winnonlin version 8 for noncompartmental sparse sampling PK analysis, plotting of concentration time curves and tabulation of PK parameters.
Animals were asphyxiated by carbon dioxide gas, blood was collected by cardiac stick and they were euthanized by cervical dislocation.

[2] = Pharmacokinetics of ezogabine prodrugs in rat (IV, IM, PO); conditions: for Exposure of the prodrug itself in systemic circulation: rat, in vivo, po
Experimental: as §1
as §2, with “noncompartmental” for “noncompartmental sparse sampling”
150 uL of blood were collected at predesignated time points. At completion of the study animals were asphyxiated by carbon dioxide gas and exsanguinated for euthanasia.

[3] = Acid and organic solution stability, HPLC-UV 250 nm; conditions: for Appearance of the stability solution / Degradation / conversion to ezogabine in solution (summary) / Ezogabine Area: 5 mg/mL; for Degradation / conversion to ezogabine in solution (summary): up to 3 weeks
Experimental: An HPLC-UV Vis method was developed using 0.1% Formic acid in water as mobile phase A and 0.1% Formic acid in acetonitrile as mobile Phase B. A gradient method was developed ramping from 10% A to 90% B over 8 minutes and then returning to 10% A at 8.5 minutes on a 4.6×50 mm Zorbax C-18 column. Injections of 10 uL of stability solutions were injected for analyte detection.
[…] Aliquots were collected at serial time points and then diluted to a nominal concentration of 100 ug/mL for injection to the HPLC and 250 nm monitored by the diode array detector. Data at approximately 10 days is presented.
Aliquots were collected at serial time points and then diluted to a nominal concentration of 100 ug/mL for injection to the HPLC and 250 nm monitored by the diode array detector.
(§3) It was also evaluated at 2 N HCl at 37° C. Aliquots were collected at serial time points and then diluted to a nominal concentration of 100 ug/mL for injection to the HPLC and 250 nm monitored by the diode array detector.
as §3, §3, §3

[4] = patients receiving ezogabine (POTIGA); cited from earlier work
[5] = Solvent solubility assessment by visual inspection; assay type: physicochemical; conditions: 0.1N Na2HPO4
Experimental: Compounds were weighed and placed into a 4 dram vials and solvents were added to the target concentration. Compounds were vortex and visually inspected for particulates and considered soluble if clear upon visual inspection with and without magnification. Solubility was reported as either greater than (>) or less than (<) from the prepared concentration. […] It was evaluated at 10 mg/mL in 0.1 N NaCl and was freely soluble. It was evaluate at 1 mg/mL in 0.1 N NaOH and 0.1 N Na2HPO4 and was freely soluble. In ethanol and methanol it was freely soluble at a concentration of 75 mg/mL. […] It was freely soluble at 75 mg/mL in methanol and ethanol. It was soluble at 1 mg/mL in 1N HCl.

[6] = Stability in solvents on the benchtop exposed to light, HPLC-UV 230 nm; assay type: physicochemical
Experimental: Compounds in solvent were left on the benchtop exposed to light for up to 7 days since it is known that Compound 1 will degrade with light within 3-7 days.
Stability was assessed by taking an aliquot from the solubility vials at each test day. A single replicate was injected for each test condition.
Samples were injected onto an HPLC system with an aqueous mobile phase and acetonitrile organic phase and compounds were separated on a C8 50×2 mm column. Wavelength 230 nm was monitored for absorption and integrated for peak area while the mass spectrometer was used to confirm mass. Samples were tested on Day 1 and on subsequent days through Day 7.

[7] = In vitro mouse plasma stability at 37° C.; assay type: in vitro ADME; conditions: 1000 ng/mL
Experimental: (§4) Plasma was collected by the biomaterial vendor and kept frozen at −20° C.
(§5) The samples were analyzed by HPLC separation and mass spectrometry detection for prodrug amount, relative to a baseline time 0 control sample. Triplicate samples were generated at each time point and the peak area response was averaged and converted to a percent of baseline control.

[8] = In vitro rat plasma stability at 37° C.; assay type: in vitro ADME
Experimental: as §4, §5

[9] = test system: MES induced seizures; experiment: SD rat MES test after IM Compound 4; assay type: in vivo; conditions: IM 75 mg/kg
Experimental: All treatments were at 0.083, 0.25, 0.5, 1, 2, 4, and 8 hours prior to the administration of MES test, where 6 seconds where 6 seconds without a seizure was considered protected.

[10] = Rat PK at equimolar dose to Ezogabine (20 mg/kg) in 0.5% methylcellulose; conditions: for AUClast/D / Cmax/D: male jugular vein cannulated rats, dose equimolar to Ezogabine 20 mg/kg, 0.5% methylcellulose in water, analyte the dosed prodrug; for AUClast/D: 24 hours; for Exposure of ezogabine (dose normalized AUC) compared with ezogabine itself: rats, equimolar dose to Ezogabine 20 mg/kg
Experimental: (§6) Blood samples were collected at the same time points over 24 hours to generate a concentration time profile. Two male rats were dosed per group. Plasma samples were analyzed by LC/MS/MS and the resulting concentration time profiles and PK parameters are provided.
as §6, §6

[11] = test system: flicks/licks after intraplantar 5% formalin; experiment: Formalin inflammatory pain model; assay type: in vivo, CD-1 mouse; conditions: SC 100 mg/kg in water 30 minutes before formalin; both phases (0-10 min, 15-40 min)
Experimental: Compound 4 was assessed in the rat formalin inflammatory model. The number of flicks/licks of a male CD-1 mouse in the acute phase 0-10 minute and the inflammatory phase from 15-40 min after intraplantar administration of 50 μL of 5% formalin was recorded. […] Data is presented over the duration of the observation periods in 2 minute bins.

[12] = test system: mechanical hypersensitivity in the CCI model; experiment: CCI model of neuropathic pain (pin prick, von Frey hairs); assay type: in vivo, Sprague Dawley rat; conditions: 1 h after pretreatment
Experimental: Compound 3 was tested for reversal of mechanical hypersensitivity to the pin prick test for hindlimb paw withdraw and the von Frey hairs for gram force mechanical allodynia in the CCI model of neuropathic pain. Male Sprague Dawley rats (n=8/group) were tested for baseline sensitivity on Day 1 (ipsilateral and contralateral paws) and administered XYG-203 orally; 40 mg/kg on Day 1, 20 mg/kg Day 3, 10 mg/kg Day 5, 5 mg/kg Day 7, 1 mg/kg Day 10 and baseline on Day 12. Mechanical hypersensitivity was tested 1 h after pretreatment. Data (mean±SD) were analyzed with a repeated measures ANOVA with Dunnet's adjustment for multiple comparisons.

[13] = Methanol, room temp., normal light, 437 h

CCOC(=O)Nc1ccc(NCc2ccc(F)cc2)cc1N [Compound 1, ezogabine]
Cmax/D ([1]; analyte Cmpd 1): 148 ng/mL/mg/kg | AUClast/D ([1]; analyte Cmpd 1, AUClast 6 h): 190 ng·h/mL/mg/kg | AUClast/D ([2]; male Sprague Dawley rats, PO 20 mg/kg Cmpd 1 dosed, analyte Cmpd 1, AUClast […] h): 280 ng·h/mL/mg/kg | Appearance of the stability solution ([3]; acid solutions, room temperature): turning light purple (indicating degradation) by Day 2 | Solubility ([3]; low pH): soluble | Behaviour at low pH ([3]; low pH (1 N HCl) and simulated gastric fluid): degrades and forms a chromophore dimer | Solubility ([3]; neutral pH): not soluble | Appearance of the stability solution ([3]; organic solvent solutions, room temperature): did not begin turning purple until Day 7 | Adverse reaction: abnormal coordination [4]: 7% | Adverse reaction: aphasia [4]: 4% | Adverse reaction: asthenia [4]: 5% | Adverse reaction: balance disorder [4]: 4% | Adverse reaction: blurred vision [4]: 5% | Adverse reaction: confusional state [4]: 9% | Adverse reaction: diplopia [4]: 7% | Adverse reaction: disturbance in attention [4]: 6% | Adverse reaction: dizziness [4]: 23% | Adverse reaction: dysarthria [4]: 4% | Adverse reaction: fatigue [4]: 15% | Adverse reaction: gait disturbance [4]: 4% | Adverse reaction: memory impairment [4]: 6% | Adverse reaction: somnolence [4]: 22% | Adverse reaction: tremor [4]: 8% | Adverse reaction: vertigo [4]: 8%

CCOC(=O)Nc1ccc(NCc2ccc(F)cc2)cc1NC(=O)[C@@H](N)CCCCN [Compound 4]
Solubility [5]: >1000 µg/mL | Stability in solvent ([6]; all test conditions except 0.1N NaOH, over 4 days): stable | Plasma stability [7]: degrades by 6 hours | Percent remaining ([8]; at 23 h): below 50% | Exposure of the prodrug itself in systemic circulation [2]: slightly more detectable | Protection from MES induced seizures ([9]; at 1 h post dose): almost fully protected | Protection from MES induced seizures ([9]; from 2 through 8 hours post dose): fully protected | AUClast/D [10]: 6.26 ng·h/mL/mg/kg | Cmax/D [10]: 2.34 ng/mL/mg/kg | Exposure of ezogabine (dose normalized AUC) compared with ezogabine itself [10]: similar | Reduction in behavioral response (flicks/licks) compared to vehicle [11]: 50% | Degradation / conversion to ezogabine in solution (summary) [3]: very little degradation to ezogabine | Ezogabine Area ([3]; 0.1N HCl, room temp., normal light, 269 h): 0 mAU | Ezogabine Area ([3]; 1N HCl, room temp., normal light, 269 h): 0 mAU | Ezogabine Area ([3]; 2N HCl 37 C., 436 h): 167 mAU | Ezogabine Area ([3]; 2N HCl, room temp., normal light, 269 h): 38 mAU | Appearance of the stability solution ([3]; 18 days): remained clear and colorless through Day 18 | Ezogabine Area [3, 13]: 0 mAU | Ezogabine Area ([3]; PBS, room temp., normal light, 435 h): 0 mAU

CCOC(=O)Nc1ccc(NCc2ccc(F)cc2)cc1NC(=O)[C@H](N)CO [Compound 6]
AUClast/D [10]: 199 ng·h/mL/mg/kg | Cmax/D [10]: 233 ng/mL/mg/kg | Exposure of ezogabine (dose normalized AUC) compared with ezogabine itself [10]: similar | Degradation / conversion to ezogabine in solution (summary) [3]: very little degradation to ezogabine | Ezogabine Area ([3]; 1N HCl, room temp., normal light, 437 h): 58 mAU | Ezogabine Area ([3]; 2N HCl 37 C., 437 h): 461 mAU | Ezogabine Area ([3]; 2N HCl, room temp., normal light, 437 h): 177 mAU | Appearance of the stability solution ([3]; 18 days): remained clear and colorless through Day 18 | Ezogabine Area [3, 13]: 184 mAU

CCOC(=O)Nc1ccc(NCc2ccc(F)cc2)cc1NC(=O)OC(C)OC(=O)C(C)C (stereo not shown) [Compound 3]
Solubility [5]: <1000 µg/mL | Stability in solvent ([6]; 0.1N HCl, benchtop exposed to light): stable over 4 days | Stability in solvent ([6]; 1N HCl over 7 days, benchtop exposed to light): not stable | Stability in solvent ([6]; ethanol and methanol, benchtop exposed to light, degradation on Day 4): soluble and stable through 3 days | Time to full degradation in vitro [7]: ≤ 1 h | Time to full degradation in vitro ([8]; 1000 ng/mL): ≤ 1 h | Exposure of the prodrug itself in systemic circulation [2]: very little exposure | Mechanical hypersensitivity versus baseline ([12]; oral 5 mg/kg): 95% confidence intervals did not cross the baseline mean | Gram force to paw lift (von Frey hairs) ([12]; oral 40 mg/kg): increased the gram force to paw lift significantly | Reduction of the latency of neuropathic ipsilateral paw withdrawal ([12]; oral 40 mg/kg, pin prick, p=0.0003): 9.2 s | AUClast/D [10]: 0.0136 ng·h/mL/mg/kg | Cmax/D [10]: 0.0273 ng/mL/mg/kg | Total exposure of ezogabine on a given molar dose relative to ezogabine ([10]; male, rat, in vivo): > 2 fold | Appearance of the stability solution [3]: clear and colorless through Day 18 | Degradation / conversion to ezogabine in solution (summary) [3]: converts to ezogabine under acidic conditions but does not in organic solvent | Ezogabine Area ([3]; 0.1N HCl, room temp., normal light, 433 h): 400 mAU | Ezogabine Area ([3]; 1N HCl, room temp., normal light, 97 h): 2881 mAU | Appearance of the stability solution ([3]; 9 days): turned a golden yellow by Day 9 | Ezogabine Area ([3]; Acetonitrile, room temp., normal light, 435 h): 51 mAU | Ezogabine Area ([3]; Ethanol, room temp., normal light, 390 h): 43 mAU | Ezogabine Area ([3]; Methanol, room temp., normal light, 435 h): 41 mAU
